Results from patent US8492371B2, “Compounds as cannabinoid receptor ligands” (priority 2009, dated 2013).
Where two headings read alike, the source gives them in different places.

Key:
rat CB2 receptors = biological target: T1, rat CB2 receptors (Rattus norvegicus, UniProt Q9QZN9); assay: Rat CB2 radioligand binding assay ([3H]CP-55,940 competition)
T1 construct: expressed in transfected cells; host or cells: HEK293
T1 sequence (Q9QZN9 1-360): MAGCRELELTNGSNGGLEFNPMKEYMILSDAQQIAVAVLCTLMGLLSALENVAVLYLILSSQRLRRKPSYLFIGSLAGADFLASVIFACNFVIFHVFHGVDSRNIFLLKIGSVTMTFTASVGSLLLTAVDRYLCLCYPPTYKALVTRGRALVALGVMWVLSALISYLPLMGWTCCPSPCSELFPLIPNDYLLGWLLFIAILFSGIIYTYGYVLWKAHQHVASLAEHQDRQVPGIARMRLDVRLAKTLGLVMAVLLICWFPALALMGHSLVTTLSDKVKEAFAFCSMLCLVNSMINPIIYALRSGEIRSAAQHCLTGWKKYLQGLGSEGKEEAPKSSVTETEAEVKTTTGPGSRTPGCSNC
Protocol: HEK293 cells stably expressing rat CB2 receptors were grown until a confluent monolayer was formed. Briefly, the cells were harvested and homogenized in TE buffer (50 mM Tris-HCl, 1 mM MgCl2, and 1 mM EDTA) using a polytron for 2×10 second bursts in the presence of protease inhibitors, followed by centrifugation at 45,000×g for 20 minutes. The final membrane pellet was re-homogenized in storage buffer (50 mM Tris-HCl, 1 mM MgCl2, and 1 mM EDTA and 10% sucrose) and frozen at −78° C. until used. Saturation binding reactions were initiated by the addition of membrane preparation (protein concentration of 20 μg/well for rat CB2) into wells of a deep well plate containing [^3H]CP-55,940 (120 Ci/mmol, a nonselective CB agonist commercially available from Tocris) in assay buffer (50 mM Tris, 2.5 mM EDTA, 5 mM MgCl2, and 0.5 mg/mL fatty acid free BSA, pH 7.4). After 45 min incubation at 30° C., binding reaction was terminated by the addition of 300 μL/well of cold assay buffer followed by rapid vacuum filtration through a UniFilter-96 GF/C filter plates (pre-soaked in 1 mg/mL BSA for 2 hours). The bound activity was counted in a TopCount using Microscint-20. Saturation experiments were conducted with twelve concentrations of [^3H]CP-55,940 ranging from 0.01 to 8 nM. Competition experiments were conducted with 0.5 nM [^3H]CP-55,940 and five concentrations of displacing ligands selected from the range of 0.01 nM to […] addition of 10 μM unlabeled CP-55,940 (Tocris, Ellisville, Mo.) was used to assess nonspecific binding.

human CB2 receptors = biological target: T2, human CB2 receptors (Homo sapiens, UniProt P34972); assay: Human CB2 radioligand binding assay ([3H]CP-55,940 competition)
T2 construct: expressed in transfected cells; host or cells: HEK293
Protocol: The CB1 and CB2 radioligand binding assays described herein are utilized to determine the selectivity of compounds of the present invention for binding to CB2 relative to CB1 receptors.
HEK293 cells stably expressing human CB2 receptors were grown until a confluent monolayer was formed. Briefly, the cells were harvested and homogenized in TE buffer (50 mM Tris-HCl, 1 mM MgCl2, and 1 mM EDTA) using a polytron for 2×10 second bursts in the presence of protease inhibitors, followed by centrifugation at 45,000×g for 20 minutes. The final membrane pellet was re-homogenized in storage buffer (50 mM Tris-HCl, 1 mM MgCl2, and 1 mM EDTA and 10% sucrose) and frozen at −78° C. until used. Saturation binding reactions were initiated by the addition of membrane preparation (protein concentration of 5 μg/well for human CB2) into wells of a deep well plate containing ([^3H]CP-55,940 (120 Ci/mmol, a nonselective CB agonist commercially available from Tocris) in assay buffer (50 mM Tris, 2.5 mM EDTA, 5 mM MgCl2, and 0.5 mg/mL fatty acid free BSA, pH 7.4). After 90 min incubation at 30° C., binding reaction was terminated by the addition of 300 μL/well of cold assay buffer followed by rapid vacuum filtration through a UniFilter-96 GF/C filter plates (pre-soaked in 1 mg/mL BSA for 2 hours). The bound activity was counted in a TopCount using Microscint-20. Saturation experiments were conducted with twelve concentrations of [^3H]CP-55,940 ranging from 0.01 to 8 nM. Competition experiments were conducted with 0.5 nM [^3H]CP-55,940 and five concentrations of displacing ligands selected from the range of 0.01 nM to 10 μM. The addition of 10 μM unlabeled CP-55,940 (Tocris, Ellisville, Mo.) was used to assess nonspecific binding.

[1] = HEK293 membranes, 0.5 nM [3H]CP-55,940, read-out: human CB2 Ki

T2 sequence (P34972 whole entry): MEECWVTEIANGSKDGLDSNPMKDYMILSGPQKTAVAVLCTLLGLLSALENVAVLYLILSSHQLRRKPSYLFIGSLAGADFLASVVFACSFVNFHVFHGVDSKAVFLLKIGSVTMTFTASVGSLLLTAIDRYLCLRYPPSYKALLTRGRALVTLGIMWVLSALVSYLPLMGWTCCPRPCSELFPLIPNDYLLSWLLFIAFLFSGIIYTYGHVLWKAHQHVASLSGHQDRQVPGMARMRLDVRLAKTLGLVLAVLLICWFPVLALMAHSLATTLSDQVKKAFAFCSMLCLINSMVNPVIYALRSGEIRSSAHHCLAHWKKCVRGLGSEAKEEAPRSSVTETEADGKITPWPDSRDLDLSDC

| Structure (SMILES) | Ki (rat CB2 receptors) | Ki (human CB2 receptors) | Ki (human CB2 receptors; [1]) |
| --- | --- | --- | --- |
| Cn1c(C(C)(C)C)c/c(=N\C(=O)c2cccc(S(F)(F)(F)(F)F)c2)n1C[C@H]1CCCO1 [Example 15, N-{(3E)-5-tert-butyl-1-methyl-2-[(2R)-tetrahydrofuran-2-ylmethyl]-1,2-dihydro-3H-pyrazol-3-ylidene}-3-(pentafluoro-lambda˜6˜sulfanyl)benzamide] | 1.2 nM | 2.8 nM |  |
| Cn1c(C(C)(C)C)c/c(=N\C(=O)c2cc(C(F)(F)F)ccc2CC(=O)OC(C)(C)C)n1C[C@H]1CCCO1 [Example 111, tert-butyl [2-[({(3E)-5-tert-butyl-1-methyl-2-[(2R)-tetrahydrofuran-2-ylmethyl]-1,2-dihydro-3H-pyrazol-3-ylidene}amino)carbonyl]-4-(trifluoromethyl)phenyl]acetate] | 12 nM | 14 nM |  |
| Cn1c(C(C)(C)C)c/c(=N\C(=O)c2cc(C(F)(F)F)ccc2OCCC(C)(C)F)n1C[C@H]1CCCO1 [Example 43, N-{(3E)-5-tert-butyl-1-methyl-2-[(2R)-tetrahydrofuran-2-ylmethyl]-1,2-dihydro-3H-pyrazol-3-ylidene}-2-(3-fluoro-3-methylbutoxy)-5-(trifluoromethyl)benzamide] | 10 nM | 19 nM |  |
| Cn1c(C2(C)CC2)c/c(=N\C(=O)c2cc(C(F)(F)F)ccc2OCC2(O)CCC2)n1C[C@H]1CCCO1 [Example 102, 2-[(1-hydroxycyclobutyl)methoxy]-N-{(3E)-1-methyl-5-(1-methylcyclopropyl)-2-[(2 R)-tetrahydrofuran-2-ylmethyl]-1,2-dihydro-3H-pyrazol-3-ylidene}-5-(trifluoromethyl)benzamide] | 11 nM | 21 nM |  |
| C[C@@H](F)COc1ccc(C(F)(F)F)cc1C(=O)/N=c1\cc(C(C)(C)C)n(C)n1C[C@H]1CCCO1 [Example 41, N-{(3E)-5-tert-butyl-1-methyl-2-[(2R)-tetrahydrofuran-2-ylmethyl]-1,2-dihydro-3H-pyrazol-3-ylidene}-2-{[(2R)-2-fluoropropyl]oxy}-5-(trifluoromethyl)benzamide] | 18 nM | 132 nM |  |
| COc1ccc(Br)cc1C(=O)/N=c1\cc(C(C)(C)C)n(C)n1C[C@H]1CCCO1 [Example 49, 5-bromo-N-{(3E)-5-tert-butyl-1-methyl-2-[(2R)-tetrahydrofuran-2-ylmethyl]-1,2-dihydro-3H-pyrazol-3-ylidene}-2-methoxybenzamide] | 20 nM | 56 nM |  |
| COc1ccc(Cl)cc1C(=O)/N=c1\cc(C(C)(C)C)on1C[C@H]1CCCO1 [Example 11, N-[(3E)-5-tert-butyl-2-[(2R)-tetrahydrofuran-2-ylmethyl]isoxazol-3(2H)-ylidene]-5-chloro-2-methoxybenzamide] | 2.6 nM | 4.8 nM |  |
| COc1ccc(C(F)(F)F)cc1C(=O)/N=c1\cc(C(C)(C)C)n(C)n1CC1CCCCO1 (stereo not shown) [Example 63, N-[(3E)-5-tert-butyl-1-methyl-2-(tetrahydro-2H-pyran-2-ylmethyl)-1,2-dihydro-3H-pyrazol-3-ylidene]-2-methoxy-5-(trifluoromethyl)benzamide] | 20 nM | 36 nM |  |
| CC(C)(C)c1nn(C[C@H]2CCCO2)/c(=N/C(=O)NC2CCCc3ccccc32)s1 (stereo partly drawn) [Example 73, N-[(2Z)-5-tert-butyl-3-[(2R)-tetrahydrofuran-2-ylmethyl]-1,3,4-thiadiazol-2(3 H)-ylidene]-N′-1,2,3,4-tetrahydronaphthalen-1-ylurea] | 8.2 nM | 45 nM |  |
| CN(C)CCOc1ccc(C(F)(F)F)cc1C(=O)/N=c1\oc(C(C)(C)C)cn1C[C@H]1CCCO1 [Example 108, N-[(2Z)-5-tert-butyl-3-[(2R)-tetrahydrofuran-2-ylmethyl]-1,3-oxazol-2(3 H)-ylidene]-2-[2-(dimethylamino)ethoxy]-5-(trifluoromethyl)benzamide] | 55 nM | 148 nM |  |
| Cn1c(C(C)(C)C)c/c(=N\C(=O)c2cc(C(F)(F)F)ccc2OCC2CC(=NO)C2)n1C[C@H]1CCCO1 (stereo partly drawn) [Example 119, N-{(3E)-5-tert-butyl-1-methyl-2-[(2R)-tetrahydrofuran-2-ylmethyl]-1,2-dihydro-3H-pyrazol-3-ylidene}-2-{[3-(hydroxyimino)cyclobutyl]methoxy}-5-(trifluoromethyl)benzamide] | 25 nM | 70 nM |  |
| CCOC(=O)CCc1ccc(C(F)(F)F)cc1C(=O)/N=c1\cc(C(C)(C)C)n(C)n1C[C@H]1CCCO1 [Example 131, ethyl 3-[2-[({(3E)-5-tert-butyl-1-methyl-2-[(2R)-tetrahydrofuran-2-ylmethyl]-1,2-dihydro-3H-pyrazol-3-ylidene}amino)carbonyl]-4-(trifluoromethyl)phenyl]propanoate] | 18 nM | 23 nM |  |
| COc1ccc(Cl)cc1C(=O)/N=c1\sc(C(C)(C)C)nn1C[C@H]1CCCO1 [Example 4, N-[(2Z)-5-tert-butyl-3-[(2R)-tetrahydrofuran-2-ylmethyl]-1,3,4-thiadiazol-2(3 H)-ylidene]-5-chloro-2-methoxybenzamide] | 1.2 nM | 6.9 nM |  |
| Cn1c(C(C)(C)C)c/c(=N\C(=O)c2cc(C(F)(F)F)ccc2Cl)n1C[C@H]1CCCO1 [Example 54, N-{(3E)-5-tert-butyl-1-methyl-2-[(2R)-tetrahydrofuran-2-ylmethyl]-1,2-dihydro-3H-pyrazol-3-ylidene}-2-chloro-5-(trifluoromethyl)benzamide] | 9.5 nM | 17 nM |  |
| Cc1ccc(C(F)(F)F)cc1C(=O)/N=c1\cc(C(C)(C)C)n(C)n1C[C@H]1CCCO1 [Example 86] | 3.3 nM | 11 nM |  |
| COC(=O)C12CC3CC(CC(C(=O)/N=c4\cc(C(C)(C)C)n(C)n4C[C@H]4CCCO4)(C3)C1)C2 [Example 118] | 14 nM | 42 nM |  |
| Cn1c(C(C)(C)C)c/c(=N\C(=O)c2cc([N+](=O)[O-])cc(C(F)(F)F)c2)n1C[C@H]1CCCO1 [Example 106, N-{(3E)-5-tert-butyl-1-methyl-2-[(2R)-tetrahydrofuran-2-ylmethyl]-1,2-dihydro-3H-pyrazol-3-ylidene}-3-nitro-5-(trifluoromethyl)benzamide] | 63 nM |  | 168 nM |
| COc1ccc(C(F)(F)F)cc1C(=O)/N=c1\cc(C(C)(C)C)n(C)n1CC1CC[C@H](C)O1 (stereo partly shown) [Example 65, N-((3E)-5-tert-butyl-1-methyl-2-{[(55)-5-methyltetrahydrofuran-2-yl]methyl}-1,2-dihydro-3H-pyrazol-3-ylidene)-2-methoxy-5-(trifluoromethyl)benzamide] | 5.7 nM | 65 nM |  |
| COc1ccc(Cl)cc1C(=O)/N=c1\cc(C(C)(C)C)ccn1C[C@H]1CCCO1 [Example 61, N-[(2E)-4-tert-butyl-1-[(2R)-tetrahydrofuran-2-ylmethyl]pyridin-2(1H)-ylidene]-5-chloro-2-methoxybenzamide] | 13 nM |  | 103 nM |
| CCOc1ccc(C(F)(F)F)cc1C(=O)/N=c1\cc(C(C)(C)C)n(C)n1C[C@H]1CCCO1 [Example 14, N-{(3E)-5-tert-butyl-1-methyl-2-[(2R)-tetrahydrofuran-2-ylmethyl]-1,2-dihydro-3H-pyrazol-3-ylidene}-2-ethoxy-5-(trifluoromethyl)benzamide] | 24 nM | 35 nM |  |
